# Laboratory results published in patent publication US20210161855A1, “5-LIPOXYGENASE ANTAGONISTS” (INSTITUTO DE MEDICINA MOLECULAR JOÃO LOBO ANTUNES, priority 2017, published 2021).
# Where two headings read alike, the source gives them in different places.
# Experiments:
# HEL = test: Cell viability, AML model HEL (FIG. 9a); assay type: cell-based; conditions: Homo sapiens, n=3
# 5-LO = biological target: T1, 5-LO (Homo sapiens, UniProt P09917); test: 5-LO activity in neutrophil homogenates; assay type: biochemical; set-up: endogenous in cells; host or cells: neutrophils isolated from peripheral blood of healthy adult volunteers; intact or sonicated homogenates; conditions: n=3
# T1 sequence (P09917 1-674): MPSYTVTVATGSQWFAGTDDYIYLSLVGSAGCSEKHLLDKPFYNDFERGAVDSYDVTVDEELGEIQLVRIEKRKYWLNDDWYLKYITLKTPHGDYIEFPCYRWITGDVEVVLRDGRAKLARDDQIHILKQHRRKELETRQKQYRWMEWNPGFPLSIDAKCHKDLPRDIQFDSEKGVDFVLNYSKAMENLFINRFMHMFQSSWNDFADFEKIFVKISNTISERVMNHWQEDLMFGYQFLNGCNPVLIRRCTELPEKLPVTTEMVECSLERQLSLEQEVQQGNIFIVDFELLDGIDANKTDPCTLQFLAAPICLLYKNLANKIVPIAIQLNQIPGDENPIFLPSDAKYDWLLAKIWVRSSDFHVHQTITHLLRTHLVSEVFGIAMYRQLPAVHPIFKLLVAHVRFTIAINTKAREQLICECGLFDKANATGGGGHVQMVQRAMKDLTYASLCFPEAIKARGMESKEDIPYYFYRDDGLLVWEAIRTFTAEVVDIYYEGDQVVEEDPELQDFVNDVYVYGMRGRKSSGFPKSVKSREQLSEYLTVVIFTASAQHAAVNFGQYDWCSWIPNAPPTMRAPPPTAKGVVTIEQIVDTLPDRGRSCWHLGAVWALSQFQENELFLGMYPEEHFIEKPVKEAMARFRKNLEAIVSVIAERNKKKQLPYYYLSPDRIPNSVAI
# Description: Peripheral blood (University Hospital Jena, Germany) was withdrawn from healthy adult volunteers with consent that had not taken any anti-inflammatory drugs during the last 10 days, by venipuncture in heparinized tubes (16 IE heparin/mL blood). The blood was centrifuged at 4000 g for 20 min at 20° C. for preparation of leukocyte concentrates. Leukocyte concentrates were then subjected to dextran sedimentation and centrifugation on lymphocyte separation medium (LSM 1077, PAA, Colbe, Germany). Contaminating erythrocytes of pelleted neutrophils were removed by hypotonic Iysis. Neutrophils were then washed twice in ice-cold PBS and finally resuspended in PBS pH 7.4 containing 1 mg/mL glucose or in PBS pH 7.4 containing 1 mg/mL glucose plus 1 mM CaCl2 (PGC buffer) (purity>96-97%).
# For analysis of 5-LO product formation in corresponding homogenates, neutrophils were resuspended in PBS containing 1 mM EDTA for 5 min at 4° C. and sonicated (4×10 s, 4° C.). Homogenates, corresponding to 5×10^6 cells/mL, were incubated with the test compounds or vehicle (0.1% DMSO) with or without 1 mM DTT for 15 min at 4° C., pre-warmed for 30 s at 37° C., and the reaction was started by the addition of 2 mM CaCl2 plus the indicated concentrations of AA (routinely 20 μM). The reaction was stopped after 10 min and the samples were analyzed as described for intact cells above.
# Data are expressed as mean±S.E.M. IC50 values were calculated from averaged measurements at 6 different concentrations of the compound by nonlinear regression using GraphPad Prism software (San Diego, Calif.) one site binding competition. Statistical evaluation of the data was performed by one-way ANOVA followed by a Tukey-Kramer post-hoc test for multiple comparisons respectively. A p value<0.05 (*) was considered significant.
# TRPV1 = TRPV1 (Homo sapiens, UniProt Q8NER1); test: TRPV1 channel antagonism, functional assay; assay type: cell-based; conditions: 150 μM
# Sequence of TRPV1 (Q8NER1 whole entry, species assumed): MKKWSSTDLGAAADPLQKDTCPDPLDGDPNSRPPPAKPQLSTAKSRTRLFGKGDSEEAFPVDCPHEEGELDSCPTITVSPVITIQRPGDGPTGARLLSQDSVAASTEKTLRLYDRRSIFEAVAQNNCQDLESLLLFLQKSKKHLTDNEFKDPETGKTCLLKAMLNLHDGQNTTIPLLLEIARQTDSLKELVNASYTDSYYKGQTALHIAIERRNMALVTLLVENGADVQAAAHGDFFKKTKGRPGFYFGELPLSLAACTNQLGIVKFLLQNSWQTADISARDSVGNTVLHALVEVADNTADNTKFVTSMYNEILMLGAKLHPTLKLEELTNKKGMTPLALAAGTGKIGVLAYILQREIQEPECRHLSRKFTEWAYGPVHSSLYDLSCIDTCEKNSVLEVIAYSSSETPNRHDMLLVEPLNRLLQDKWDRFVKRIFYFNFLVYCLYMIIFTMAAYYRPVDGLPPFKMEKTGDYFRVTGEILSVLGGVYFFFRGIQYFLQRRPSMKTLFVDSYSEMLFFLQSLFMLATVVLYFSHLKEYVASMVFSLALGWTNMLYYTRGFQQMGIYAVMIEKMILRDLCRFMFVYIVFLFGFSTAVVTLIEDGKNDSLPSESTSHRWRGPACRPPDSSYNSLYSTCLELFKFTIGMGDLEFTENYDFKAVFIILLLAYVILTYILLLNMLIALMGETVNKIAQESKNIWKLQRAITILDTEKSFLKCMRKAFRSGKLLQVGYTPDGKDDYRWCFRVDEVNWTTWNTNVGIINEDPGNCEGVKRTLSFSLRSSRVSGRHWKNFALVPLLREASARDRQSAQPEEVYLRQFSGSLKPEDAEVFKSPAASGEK
# [1] = biological target: T2, 15-lipoxygenase-2 (15-LO-2) (Homo sapiens, UniProt O15296); test: 15-LO-2 inhibition assay, Method A (Cerep); assay type: biochemical
# T2 sequence (O15296 1-676): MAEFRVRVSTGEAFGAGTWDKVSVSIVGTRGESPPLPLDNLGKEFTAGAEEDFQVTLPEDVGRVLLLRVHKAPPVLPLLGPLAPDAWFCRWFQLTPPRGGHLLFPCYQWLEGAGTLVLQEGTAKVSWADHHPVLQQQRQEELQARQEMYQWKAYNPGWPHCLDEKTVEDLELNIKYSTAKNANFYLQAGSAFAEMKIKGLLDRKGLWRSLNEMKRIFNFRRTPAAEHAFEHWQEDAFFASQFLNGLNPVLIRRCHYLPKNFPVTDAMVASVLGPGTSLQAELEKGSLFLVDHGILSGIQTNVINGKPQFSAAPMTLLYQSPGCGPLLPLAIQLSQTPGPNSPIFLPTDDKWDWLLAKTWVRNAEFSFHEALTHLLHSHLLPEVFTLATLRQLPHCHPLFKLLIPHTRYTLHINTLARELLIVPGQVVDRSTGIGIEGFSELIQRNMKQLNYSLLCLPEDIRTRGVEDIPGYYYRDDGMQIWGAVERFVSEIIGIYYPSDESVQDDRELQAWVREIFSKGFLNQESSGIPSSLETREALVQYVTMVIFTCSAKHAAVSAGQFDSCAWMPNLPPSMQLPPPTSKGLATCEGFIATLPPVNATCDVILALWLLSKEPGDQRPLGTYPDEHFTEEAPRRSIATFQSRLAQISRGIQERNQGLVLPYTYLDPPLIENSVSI
# Description: (§1) Method A: 5-Lipoxygenase (5-LO), 12-lipoxygenase (12-LO) and 15-lipoxygenase-2 (15-LO-2) inhibition assays were performed at Cerep, SA (Celle l'Evescault, France) on a fee-for-service basis (Ref 0772^36, 0883^37 and 0893^38, respectively), as described in Table 1.
# 5-lipoxygenase (5-LO) = biological target: T3, 5-lipoxygenase (5-LO) (Homo sapiens, UniProt P09917); test: 5-LO inhibition assay, Method A (Cerep), cell-free functional; assay type: biochemical
# T3 sequence (P09917 1-674): T1 sequence (P09917 1-674)
# Description: as §1
# Escherichia coli K12 = test: MIC/MBC assay, E. coli; assay type: cell-based; conditions: read-out: Minimum bactericidal concentration
# Description: Escherichia coli K12 and Staphylococcus aureus ATCC 25923 were grown overnight at 37° C. and re-inoculated in 24-well plates containing 2.5 mL of Luria Bertani medium (LB) to give an optical density of ˜0.01 at 600 nm. Stock solutions of β-lapachone, and lapachol were prepared in DMSO (1% final concentration) and added to the cell suspensions to obtain final concentrations between 5-210 μM. Wells containing a growth control (cell suspensions with 1% DMSO) and a sterile media control were also prepared. The plates were incubated for 18 h at 37° C. and 90 r.p.m. The concentration of compound in the first well in the series that presented no sign of visible growth was reported as the MIC. The OD600 of the cultures was also measured. All the MIC wells were serially diluted in phosphate buffer saline (PBS) and plated onto LB agar plates.
smiles,measurement,setting,value
"CC1(C)CCC2=C(O1)c1ccccc1C(=O)C2=O [Compound 1, 3,4-dihydro-2,2-dimethyl-2H-naphtho[1,2-b]pyran-5,6-dione]",IC50,HEL,900 nM
same,IC50,"5-LO; 1 mM DTT, read-out: IC50 (with DTT), 5-LO activity in neutrophil homogenates",90 nM
same,IC50,"5-LO; absence of DTT, read-out: IC50 (without DTT), 5-LO activity in neutrophil homogenates",5200 nM
same,TRPV1 antagonist effect,TRPV1,63%
same,inhibition at 5 µM,[1],-13%
same,"Ligand efficiency (LE), 5-LO",5-lipoxygenase (5-LO); from IC50 2.1 μM,0.44
same,inhibition at 150 µM,5-lipoxygenase (5-LO); read-out: 5-LO inhibition at the assayed concentration,96%
same,IC50,5-lipoxygenase (5-LO); reducing conditions,2100 nM
same,MBC,Escherichia coli K12,> 200 µM
